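Growth conditions: 96-well plates. Treatment: test compound, 48 hours, 5 concentrations. Analysis: linear interpolation between bracketing concentrations; unreached endpoints set to highest concentration. GI50 marks 50% less growth. At the TGI there is no net growth.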
How the values were obtained:
Assay in all cases: NCI tumour cell line growth inhibition, 48 h
786-0 renal = tested on: 786-0 renal
A498 renal = tested on: A498 renal
A549 NSCLC = tested on: A549 NSCLC
ACHN renal = tested on: ACHN renal
BT-549 breast = tested on: BT-549 breast
CAKI-1 renal = tested on: CAKI-1 renal
CCRF-CEM leukemia = tested on: CCRF-CEM leukemia
COLO 205 colon = tested on: COLO 205 colon
DU-145 prostate = tested on: DU-145 prostate
EKVX NSCLC = tested on: EKVX NSCLC
HCC-2998 colon = tested on: HCC-2998 colon
HCT-116 colon = tested on: HCT-116 colon
HCT-15 colon = tested on: HCT-15 colon
HL-60(TB) leukemia = tested on: HL-60(TB) leukemia
HOP-62 NSCLC = tested on: HOP-62 NSCLC
HOP-92 NSCLC = tested on: HOP-92 NSCLC
HS 578T breast = tested on: HS 578T breast
HT29 colon = tested on: HT29 colon
IGROV1 ovarian = tested on: IGROV1 ovarian
K-562 leukemia = tested on: K-562 leukemia
KM12 colon = tested on: KM12 colon
M14 melanoma = tested on: M14 melanoma
MCF7 breast = tested on: MCF7 breast
MDA-MB-231 breast = tested on: MDA-MB-231 breast
MDA-MB-435 = tested on: MDA-MB-435
MOLT-4 leukemia = tested on: MOLT-4 leukemia
NCI-H226 lung = tested on: NCI-H226 lung
NCI-H23 lung = tested on: NCI-H23 lung
NCI-H460 lung = tested on: NCI-H460 lung
NCI-H522 lung = tested on: NCI-H522 lung
NCI/ADR-RES ovarian = tested on: NCI/ADR-RES ovarian
OVCAR-3 ovarian = tested on: OVCAR-3 ovarian
OVCAR-4 ovarian = tested on: OVCAR-4 ovarian
OVCAR-5 ovarian = tested on: OVCAR-5 ovarian
OVCAR-8 ovarian = tested on: OVCAR-8 ovarian
PC-3 prostate = tested on: PC-3 prostate
RPMI-8226 leukemia = tested on: RPMI-8226 leukemia
RXF 393 renal = tested on: RXF 393 renal
SF-268 CNS = tested on: SF-268 CNS
SF-295 CNS = tested on: SF-295 CNS
SF-539 CNS = tested on: SF-539 CNS
SK-MEL-2 melanoma = tested on: SK-MEL-2 melanoma
SK-MEL-28 melanoma = tested on: SK-MEL-28 melanoma
SK-MEL-5 melanoma = tested on: SK-MEL-5 melanoma
SK-OV-3 ovarian = tested on: SK-OV-3 ovarian
SN12C renal = tested on: SN12C renal
SNB-19 CNS = tested on: SNB-19 CNS
SNB-75 CNS = tested on: SNB-75 CNS
SR leukemia = tested on: SR leukemia
SW-620 colon = tested on: SW-620 colon
T-47D breast = tested on: T-47D breast
TK-10 renal = tested on: TK-10 renal
U251 CNS = tested on: U251 CNS
UACC-257 melanoma = tested on: UACC-257 melanoma
UACC-62 melanoma = tested on: UACC-62 melanoma
UO-31 renal = tested on: UO-31 renal
LOX IMVI melanoma = tested on: LOX IMVI melanoma
MALME-3M melanoma = tested on: MALME-3M melanoma

COc1ccc(CCNC(=O)CCc2ccccc2CO)cc1OC
TGI (786-0 renal): > 100000 nM
TGI (A498 renal): > 100000 nM
TGI (A549 NSCLC): > 100000 nM
TGI (ACHN renal): > 100000 nM
TGI (BT-549 breast): > 100000 nM
TGI (CAKI-1 renal): > 100000 nM
TGI (CCRF-CEM leukemia): > 100000 nM
TGI (COLO 205 colon): > 100000 nM
TGI (DU-145 prostate): > 100000 nM
TGI (EKVX NSCLC): > 100000 nM
TGI (HCC-2998 colon): > 100000 nM
TGI (HCT-116 colon): > 100000 nM
TGI (HCT-15 colon): > 100000 nM
TGI (HL-60(TB) leukemia): > 100000 nM
TGI (HOP-62 NSCLC): > 100000 nM
TGI (HOP-92 NSCLC): > 100000 nM
TGI (HS 578T breast): > 100000 nM
TGI (HT29 colon): > 100000 nM
TGI (IGROV1 ovarian): > 100000 nM
TGI (K-562 leukemia): > 100000 nM
TGI (KM12 colon): > 100000 nM
TGI (M14 melanoma): > 100000 nM
TGI (MCF7 breast): > 100000 nM
TGI (MDA-MB-231 breast): > 100000 nM
TGI (MDA-MB-435): > 100000 nM
TGI (MOLT-4 leukemia): > 100000 nM
TGI (NCI-H226 lung): > 100000 nM
TGI (NCI-H23 lung): > 100000 nM
TGI (NCI-H460 lung): > 100000 nM
TGI (NCI-H522 lung): > 100000 nM
TGI (NCI/ADR-RES ovarian): > 100000 nM
TGI (OVCAR-3 ovarian): > 100000 nM
TGI (OVCAR-4 ovarian): > 100000 nM
TGI (OVCAR-5 ovarian): > 100000 nM
TGI (OVCAR-8 ovarian): > 100000 nM
TGI (PC-3 prostate): > 100000 nM
TGI (RPMI-8226 leukemia): > 100000 nM
TGI (RXF 393 renal): > 100000 nM
TGI (SF-268 CNS): > 100000 nM
TGI (SF-295 CNS): > 100000 nM
TGI (SF-539 CNS): > 100000 nM
TGI (SK-MEL-2 melanoma): > 100000 nM
TGI (SK-MEL-28 melanoma): > 100000 nM
TGI (SK-MEL-5 melanoma): > 100000 nM
TGI (SK-OV-3 ovarian): > 100000 nM
TGI (SN12C renal): > 100000 nM
TGI (SNB-19 CNS): > 100000 nM
TGI (SNB-75 CNS): > 100000 nM
TGI (SR leukemia): > 100000 nM
TGI (SW-620 colon): > 100000 nM
TGI (T-47D breast): > 100000 nM
TGI (TK-10 renal): > 100000 nM
TGI (U251 CNS): > 100000 nM
TGI (UACC-257 melanoma): > 100000 nM
TGI (UACC-62 melanoma): > 100000 nM
TGI (UO-31 renal): > 100000 nM

COc1ccc(/C=C/C(=O)c2cc3c(N)c(C(=O)Nc4ccccc4C)sc3nc2C)cc1
GI50 (786-0 renal): 489 nM
TGI (786-0 renal): > 50000 nM
GI50 (A498 renal): 197 nM
TGI (A498 renal): 2640 nM
GI50 (A549 NSCLC): 905 nM
TGI (A549 NSCLC): > 50000 nM
GI50 (ACHN renal): 360 nM
TGI (ACHN renal): > 50000 nM
GI50 (BT-549 breast): 568 nM
TGI (BT-549 breast): > 50000 nM
GI50 (CAKI-1 renal): 392 nM
TGI (CAKI-1 renal): > 50000 nM
GI50 (CCRF-CEM leukemia): 475 nM
TGI (CCRF-CEM leukemia): > 50000 nM
GI50 (DU-145 prostate): 431 nM
TGI (DU-145 prostate): > 23400 nM
GI50 (EKVX NSCLC): 1880 nM
TGI (EKVX NSCLC): > 50000 nM
GI50 (HCC-2998 colon): 1090 nM
TGI (HCC-2998 colon): 3610 nM
GI50 (HCT-116 colon): 530 nM
TGI (HCT-116 colon): > 50000 nM
GI50 (HCT-15 colon): 520 nM
TGI (HCT-15 colon): > 50000 nM
GI50 (HL-60(TB) leukemia): 239 nM
TGI (HL-60(TB) leukemia): 1990 nM
GI50 (HOP-62 NSCLC): 779 nM
TGI (HOP-62 NSCLC): > 50000 nM
GI50 (HOP-92 NSCLC): 600 nM
TGI (HOP-92 NSCLC): 32300 nM
GI50 (HS 578T breast): 188 nM
TGI (HS 578T breast): > 50000 nM
GI50 (HT29 colon): 487 nM
TGI (HT29 colon): > 50000 nM
GI50 (IGROV1 ovarian): 655 nM
TGI (IGROV1 ovarian): > 50000 nM
GI50 (K-562 leukemia): 267 nM
TGI (K-562 leukemia): > 50000 nM
GI50 (KM12 colon): 1070 nM
TGI (KM12 colon): 4800 nM
GI50 (LOX IMVI melanoma): 768 nM
TGI (LOX IMVI melanoma): 5210 nM
GI50 (MALME-3M melanoma): 248 nM
TGI (MALME-3M melanoma): > 50000 nM
GI50 (MCF7 breast): 240 nM
TGI (MCF7 breast): > 50000 nM
GI50 (MDA-MB-231 breast): 1180 nM
TGI (MDA-MB-231 breast): > 38500 nM
GI50 (MOLT-4 leukemia): 747 nM
TGI (MOLT-4 leukemia): > 50000 nM
GI50 (NCI-H226 lung): 619 nM
TGI (NCI-H226 lung): 12200 nM
GI50 (NCI-H23 lung): 969 nM
TGI (NCI-H23 lung): > 50000 nM
GI50 (NCI-H460 lung): 1530 nM
TGI (NCI-H460 lung): > 16600 nM
GI50 (NCI-H522 lung): 194 nM
TGI (NCI-H522 lung): > 50000 nM
GI50 (NCI/ADR-RES ovarian): 228 nM
TGI (NCI/ADR-RES ovarian): 2000 nM
GI50 (OVCAR-3 ovarian): 168 nM
TGI (OVCAR-3 ovarian): 955 nM
GI50 (OVCAR-4 ovarian): 1420 nM
TGI (OVCAR-4 ovarian): > 50000 nM
GI50 (OVCAR-5 ovarian): 1390 nM
TGI (OVCAR-5 ovarian): > 50000 nM
GI50 (OVCAR-8 ovarian): 1140 nM
TGI (OVCAR-8 ovarian): > 50000 nM
GI50 (PC-3 prostate): 285 nM
TGI (PC-3 prostate): > 50000 nM
GI50 (RPMI-8226 leukemia): 1400 nM
TGI (RPMI-8226 leukemia): > 25500 nM
GI50 (RXF 393 renal): 140 nM
TGI (RXF 393 renal): 423 nM
GI50 (SF-268 CNS): 1240 nM
TGI (SF-268 CNS): > 50000 nM
GI50 (SF-295 CNS): 497 nM
TGI (SF-295 CNS): > 50000 nM
GI50 (SF-539 CNS): 487 nM
TGI (SF-539 CNS): 1680 nM
GI50 (SK-MEL-2 melanoma): 387 nM
TGI (SK-MEL-2 melanoma): > 50000 nM
GI50 (SK-MEL-28 melanoma): 7140 nM
TGI (SK-MEL-28 melanoma): > 50000 nM
GI50 (SK-MEL-5 melanoma): 214 nM
TGI (SK-MEL-5 melanoma): 7580 nM
GI50 (SK-OV-3 ovarian): 605 nM
TGI (SK-OV-3 ovarian): > 50000 nM
GI50 (SN12C renal): 833 nM
TGI (SN12C renal): > 50000 nM
GI50 (SNB-19 CNS): 1150 nM
TGI (SNB-19 CNS): > 50000 nM
GI50 (SNB-75 CNS): 170 nM
TGI (SNB-75 CNS): 1850 nM
GI50 (SR leukemia): 593 nM
TGI (SR leukemia): > 50000 nM
GI50 (SW-620 colon): 830 nM
TGI (SW-620 colon): > 50000 nM
GI50 (T-47D breast): 322 nM
TGI (T-47D breast): > 50000 nM
GI50 (TK-10 renal): 2480 nM
TGI (TK-10 renal): > 50000 nM
GI50 (U251 CNS): 1400 nM
TGI (U251 CNS): > 50000 nM
GI50 (UACC-257 melanoma): 16100 nM
TGI (UACC-257 melanoma): > 50000 nM
GI50 (UACC-62 melanoma): 275 nM
TGI (UACC-62 melanoma): > 50000 nM
GI50 (UO-31 renal): 861 nM
TGI (UO-31 renal): > 50000 nM
